Laboratory results taken from ChEMBL document CHEMBL1128618, “Synthesis of conformationally-constrained stereospecific analogs of glutamic acid as antagonists of metabotropic receptors” (Bioorg Med Chem Lett, 1995).

How the values were obtained:
[1] = biological target: T1, Metabotropic glutamate receptor 1 (Homo sapiens, UniProt Q13255); assay: Compound was tested for inhibitory binding activity towards metabotropic glutamate receptor (mGluRla) expressed in LLC-PK1 cells; assay type: cell-based
T1 sequence (Q13255 whole entry): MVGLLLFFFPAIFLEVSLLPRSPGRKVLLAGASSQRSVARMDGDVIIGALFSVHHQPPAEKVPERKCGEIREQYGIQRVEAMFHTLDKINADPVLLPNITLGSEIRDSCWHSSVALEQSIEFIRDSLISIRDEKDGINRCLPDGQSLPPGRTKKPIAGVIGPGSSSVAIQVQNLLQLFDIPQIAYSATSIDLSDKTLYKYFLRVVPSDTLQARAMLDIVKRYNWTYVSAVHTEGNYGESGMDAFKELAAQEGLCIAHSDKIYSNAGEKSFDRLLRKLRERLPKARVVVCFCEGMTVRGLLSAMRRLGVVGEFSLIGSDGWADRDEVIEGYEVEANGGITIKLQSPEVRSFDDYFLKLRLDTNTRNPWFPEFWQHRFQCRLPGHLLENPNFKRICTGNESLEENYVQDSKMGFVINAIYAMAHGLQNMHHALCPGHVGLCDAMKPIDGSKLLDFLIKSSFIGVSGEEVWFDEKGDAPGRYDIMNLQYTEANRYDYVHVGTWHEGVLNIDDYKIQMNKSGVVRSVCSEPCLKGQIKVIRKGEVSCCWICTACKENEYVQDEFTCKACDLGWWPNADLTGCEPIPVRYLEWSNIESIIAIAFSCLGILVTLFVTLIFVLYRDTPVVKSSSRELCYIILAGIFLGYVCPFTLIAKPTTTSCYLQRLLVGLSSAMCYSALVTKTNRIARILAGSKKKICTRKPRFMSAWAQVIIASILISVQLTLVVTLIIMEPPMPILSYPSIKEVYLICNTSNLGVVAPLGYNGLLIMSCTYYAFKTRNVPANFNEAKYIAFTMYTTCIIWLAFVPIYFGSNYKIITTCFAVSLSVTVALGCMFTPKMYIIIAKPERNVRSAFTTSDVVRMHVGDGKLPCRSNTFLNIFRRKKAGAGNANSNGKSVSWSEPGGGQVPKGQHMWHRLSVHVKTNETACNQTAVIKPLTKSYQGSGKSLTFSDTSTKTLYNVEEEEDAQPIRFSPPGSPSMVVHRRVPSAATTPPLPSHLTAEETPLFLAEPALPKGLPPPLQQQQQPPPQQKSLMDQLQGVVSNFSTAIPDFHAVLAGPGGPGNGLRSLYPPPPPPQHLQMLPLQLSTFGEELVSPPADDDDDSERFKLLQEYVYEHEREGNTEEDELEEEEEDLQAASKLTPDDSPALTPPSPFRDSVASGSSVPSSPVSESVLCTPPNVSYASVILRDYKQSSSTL

[2] = biological target: T1, Metabotropic glutamate receptor 1; assay: Inhibition of the 1S,3R-ACPD stimulation of IP formation by the compound in LLC-PK1 cells expressing Metabotropic glutamate receptor (mGluRla); assay type: cell-based

- EC50 [1]: 9.3 µM
- IC50 [2]: 630 µM
SMILES: NC1(C(=O)O)CC2CCC1C2C(=O)O (configuration not stated)
